Test results as given in patent EP4477653A1 (Perha Pharmaceuticals, priority 2023, dated 2024).

Target: T1, human recombinant A3AR (expressed in HEK-293 cells) (Homo sapiens, UniProt P0DMS8)
T1 construct: host or cells: HEK-293 cells
T1 sequence (P0DMS8 1-318): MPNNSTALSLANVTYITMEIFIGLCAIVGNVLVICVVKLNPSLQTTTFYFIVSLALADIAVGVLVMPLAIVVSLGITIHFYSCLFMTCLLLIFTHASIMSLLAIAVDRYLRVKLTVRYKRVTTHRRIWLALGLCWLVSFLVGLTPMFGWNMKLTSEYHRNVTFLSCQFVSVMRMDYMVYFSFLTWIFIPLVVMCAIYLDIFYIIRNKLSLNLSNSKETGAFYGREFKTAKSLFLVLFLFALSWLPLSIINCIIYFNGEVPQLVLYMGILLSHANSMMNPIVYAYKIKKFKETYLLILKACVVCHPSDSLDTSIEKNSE
Assay: Adenosine receptors antagonism assay (Eurofins), [125I]-AB-MECA radioligand competition
Format: binding
Settings: [125I]-AB-MECA 0.15 nM, r.t., 120 min; IC50 from dose-response curves; read-out: Potency Class A3AR
Procedure: Assays were carried out at r.t. for 120 min. Compounds were initially tested at three concentrations (0.01, 0.1, 1 µM). […] IC50 values, which is the concentration causing a half-maximal inhibition of control specific binding, and Hill coefficients (nH) were determined by non-linear regression analysis of the competition curves generated with mean replicate values using Hill equation curve fitting. The inhibition constants (Ki) were calculated using the Cheng Prusoff equation.

IC50 | Compound
< 1 nM | CCC(CC)CNc1cc(Nc2cccnn2)c2nnc(C(C)C)n2n1 [compound 147, N6-(2-ethylbutyl)-3-isopropyl-N8-(pyridazin-3-yl)-[1,2,4]triazolo[4,3-b]pyridazine-6,8-diamine]
< 1 nM | CCC(CC)Nc1cc(Nc2cccnn2)c2nnc(C(C)C)n2n1 [compound 148, 3-isopropyl-N6-(pentan-3-yl)-N8-(pyridazin-3-yl)-[1,2,4]triazolo[4,3-b]pyridazine-6,8-diamine]
1 to 10 nM | CCC(CC)Nc1cc(Nc2ccnnc2)c2nnc(C(C)C)n2n1 [compound 149, 3-isopropyl-N6-(pentan-3-yl)-N8-(pyridazin-4-yl)-[1,2,4]triazolo[4,3-b]pyridazine-6,8-diamine]
< 1 nM | CCC(CC)Nc1cc(Nc2ccncn2)c2nnc(C(C)C)n2n1 [compound 150, 3-isopropyl-N6-(pentan-3-yl)-N8-(pyrimidin-4-yl)-[1,2,4]triazolo[4,3-b]pyridazine-6,8-diamine]
< 1 nM | CCC(CC)Nc1cc(Nc2cncnc2)c2nnc(C(C)C)n2n1 [compound 151, 3-isopropyl-N6-(pentan-3-yl)-N8-(pyrimidin-5-yl)-[1,2,4]triazolo[4,3-b]pyridazine-6,8-diamine]
10 to 100 nM | CCC(CC)Nc1cc(Nc2ncccn2)c2nnc(C(C)C)n2n1 [compound 152, 3-isopropyl-N6-(pentan-3-yl)-N8-(pyrimidin-2-yl)-[1,2,4]triazolo[4,3-b]pyridazine-6,8-diamine]
< 1 nM | CCC(CC)Nc1cc(Nc2cnccn2)c2nnc(C(C)C)n2n1 [compound 153, 3-isopropyl-N6-(pentan-3-yl)-N8-(pyrazin-2-yl)-[1,2,4]triazolo[4,3-b]pyridazine-6,8-diamine]
< 1 nM | CCC(CC)Nc1cc(Nc2cccc(OC)n2)c2nnc(C(C)C)n2n1 [compound 154, 3-isopropyl-N8-(6-methoxypyridin-2-yl)-N6-(pentan-3-yl)-[1,2,4]triazolo[4,3-b]pyridazine-6,8-diamine]
< 1 nM | CCC(CC)Nc1cc(Nc2ccc(OC)cn2)c2nnc(C(C)C)n2n1 [compound 155, 3-isopropyl-N8-(5-methoxypyridin-2-yl)-N6-(pentan-3-yl)-[1,2,4]triazolo[4,3-b]pyridazine-6,8-diamine]
1 to 10 nM | CCC(CC)Nc1cc(Nc2cc(OC)ccn2)c2nnc(C(C)C)n2n1 [compound 156, 3-isopropyl-N8-(4-methoxypyridin-2-yl)-N6-(pentan-3-yl)-[1,2,4]triazolo[4,3-b]pyridazine-6,8-diamine]
10 to 100 nM | CCC(CC)Nc1cc(Nc2ncccc2OC)c2nnc(C(C)C)n2n1 [compound 157, 3-isopropyl-N8-(3-methoxypyridin-2-yl)-N6-(pentan-3-yl)-[1,2,4]triazolo[4,3-b]pyridazine-6,8-diamine]
< 1 nM | CCC(CC)Nc1cc(Nc2cccnc2OC)c2nnc(C(C)C)n2n1 [compound 158, 3-isopropyl-N8-(2-methoxypyridin-3-yl)-N6-(pentan-3-yl)-[1,2,4]triazolo[4,3-b]pyridazine-6,8-diamine]
< 1 nM | CCC(CC)Nc1cc(Nc2ccc(OC)nc2)c2nnc(C(C)C)n2n1 [compound 159, 3-isopropyl-N8-(6-methoxypyridin-3-yl)-N6-(pentan-3-yl)-[1,2,4]triazolo[4,3-b]pyridazine-6,8-diamine]
1 to 10 nM | CCC(CC)Nc1cc(Nc2cncc(OC)c2)c2nnc(C(C)C)n2n1 [compound 160, 3-isopropyl-N8-(5-methoxypyridin-3-yl)-N6-(pentan-3-yl)-[1,2,4]triazolo[4,3-b]pyridazine-6,8-diamine]
< 1 nM | CCC(CC)Nc1cc(Nc2cc(OC)cnn2)c2nnc(C(C)C)n2n1 [compound 162, 3-isopropyl-N8-(5-methoxypyridazin-3-yl)-N6-(pentan-3-yl)-[1,2,4]triazolo[4,3-b]pyridazine-6,8-diamine]
10 to 100 nM | CC[C@H](CO)Nc1cc(Nc2ccccn2)c2nnc(C(C)C)n2n1 [compound 163, (2R)-2-[[3-isopropyl-8-(2-pyridylamino)-[1,2,4]triazolo[4,3-b]pyridazin-6-yl]amino]butan-1-ol]
